Experimental data from patent publication US20180235993A1 (priority 2000, published 2018).
Like-named read-outs stand apart in the source and are kept apart here.

Columns and labels:
[1] = system: YFV-17D; assay: microbe, parasite or virus in culture; format: cell-based, Yellow fever virus vaccine strain 17D; settings: Yellow fever virus, read-out: YFV EC50
[2] = system: Human bone marrow cells (BFU-E); assay: Human bone marrow toxicity, BFU-E clonogenic assay; format: cell-based; settings: Bone marrow cell; human bone marrow colony formation, 14 to 18 days
From the text: Human bone marrow cells were collected from normal healthy volunteers and the mononuclear population was separated by Ficoll-Hypaque gradient centrifugation as described previously by Sommadossi J-P, Carlisle R. “Toxicity of 3′-azido-3′-deoxythymidine and 9-(1,3-dihydroxy-2-propoxymethyl)guanine for normal human hematopoietic progenitor cells in vitro” Antimicrobial Agents and Chemotherapy 1987; 31:452-454; and Sommadossi J-P, Schinazi R F, Chu C K, Xie M-Y. “Comparison of cytotoxicity of the (−)- and (+)-enantiomer of 2′,3′-dideoxy-3′-thiacytidine in normal human bone marrow progenitor cells” Biochemical Pharmacology 1992; 44:1921-1925. The culture assays for CFU-GM and BFU-E were performed using a bilayer soft agar or methylcellulose method. Drugs were diluted in tissue culture medium and filtered. After 14 to 18 days at 37° C. in a humidified atmosphere of 5% CO2 in air, colonies of greater than 50 cells were counted using an inverted microscope. The results in Table 4 are presented as the percent inhibition of colony formation in the presence of drug compared to solvent control cultures.

[3] = system: BVDV (strain NADL); assay: Cell Protection Assay (CPA); format: cell-based, Bovine Viral Diarrhea virus; settings: Bovine viral diarrhea virus isolates and strains
Procedure: The assay was performed essentially as described by Baginski, S. G.; Pevear, D. C.; Seipel, M.; Sun, S. C. C.; Benetatos, C. A.; Chunduru, S. K.; Rice, C. M. and M. S. Collett “Mechanism of action of a pestivirus antiviral compound” PNAS USA 2000, 97(14), 7981-7986. MDBK cells (ATCC) were seeded onto 96-well culture plates (4,000 cells per well) 24 hours before use. After infection with BVDV (strain NADL, ATCC) at a multiplicity of infection (MOI) of 0.02 plaque forming units (PFU) per cell, serial dilutions of test compounds were added to both infected and uninfected cells in a final concentration of 0.5% DMSO in growth medium. Each dilution was tested in quadruplicate. Cell densities and virus inocula were adjusted to ensure continuous cell growth throughout the experiment and to achieve more than 90% virus-induced cell destruction in the untreated controls after four days post-infection. After four days, plates were fixed with 50% TCA and stained with sulforhodamine B. The optical density of the wells was read in a microplate reader at 550 nm. The 50% effective concentration (EC50) values were defined as the compound concentration that achieved 50% reduction of cytopathic effect of the virus. FIGS. 4 and 5 provide a graphical illustration of the methodology used to arrive at the 50% effective concentration (EC50) values for β-D-2′-CH3-riboG and ribavirin. FIG. 6 compares the results of the CPA for β-D-2′-CH3-riboG, β-D-2′-CH3-riboC, riboU, β-D-2′-CH3-riboA and ribavirin

[4] = system: BVDV (NADL strain); assay: Yield Reduction Assay; format: cell-based, Bovine Viral Diarrhea virus
Procedure: The assay was performed as described by Baginski, S. G.; Pevear, D. C.; Seipel, M.; Sun, S. C. C.; Benetatos, C. A.; Chunduru, S. K.; Rice, C. M. and M. S. Collett “Mechanism of action of a pestivirus antiviral compound” PNAS USA 2000, 97(14), 7981-7986, with minor modifications. Briefly, MDBK cells were seeded onto 24-well plates (2×10^5 cells per well) 24 hours before infection with BVDV (NADL strain) at a multiplicity of infection (MOI) of 0.1 PFU per cell. Serial dilutions of test compounds were added to cells in a final concentration of 0.5% DMSO in growth medium. Each dilution was tested in triplicate. After three days, cell cultures (cell monolayers and supernatants) were lysed by three freeze-thaw cycles, and virus yield was quantified by plaque assay. Briefly, MDBK cells were seeded onto 6-well plates (5×10^5 cells per well) 24 h before use. Cells were inoculated with 0.2 mL of test lysates for 1 hour, washed and overlaid with 0.5% agarose in growth medium. After 3 days, cell monolayers were fixed with 3.5% formaldehyde and stained with 1% crystal violet (w/v in 50% ethanol) to visualize plaques. FIG. 9 is a graphical illustration of the results from the Yield Reduction Assay. FIG. 8 is an image of BVDV yield reduction in the presence of increasing concentrations of β-D-2′-CH3-riboC.

[5] = Bioavailability assay in Cynomolgus monkeys; format: in vivo, Cynomolgus monkey; settings: for Mean Norm AUC: mean of 3 monkeys
Procedure: Within 1 week prior to the study initiation, the cynomolgus monkey was surgically implanted with a chronic venous catheter and subcutaneous venous access port (VAP) to facilitate blood collection and underwent a physical examination including hematology and serum chemistry evaluations and the body weight was recorded. Each monkey (six total), received approximately 250 uCi of ^3H activity with each dose of active compound, namely β-D-2′-CH3-riboG at a dose level of 10 mg/kg at a dose concentration of 5 mg/mL, either via an intravenous bolus (3 monkeys, IV), or via oral gavage (3 monkeys, PO). Each dosing syringe was weighed before dosing to gravimetrically determine the quantity of formulation administered. Urine samples were collected via pan catch at the designated intervals (approximately 18-0 hours pre-dose, 0-4, 4-8 and 8-12 hours post-dosage) and processed. Blood samples were collected as well (pre-dose, 0.25, 0.5, 1, 2, 3, 6, 8, 12 and 24 hours post-dosage) via the chronic venous catheter and VAP or from a peripheral vessel if the chronic venous catheter procedure should not be possible. The blood and urine samples were analyzed for the maximum concentration (Cmax), time when the maximum concentration was achieved (Tmax), area under the curve (AUC), half life of the dosage concentration (T1/2), clearance (CL), steady state volume and distribution (Vss) and bioavailability (F), which are tabulated in Tables 2 and 3, and graphically illustrated in FIGS. 2 and 3, respectively.

[6] = cynomolgus monkey, blood, Cynomolgus monkeys, IV 10 mg/kg
[7] = cynomolgus monkey, blood, Cynomolgus monkeys, PO 10 mg/kg

CC1(O)[C@@H](O)[C@@H](CO)O[C@H]1n1cnc2c(=O)[nH]c(N)nc21 (stereo partly drawn) [β-D-2′-CH3-riboG]
EC50 [1]: 1.2 µM
IC50 [2]: > 100 µM
EC50 ([3]; 96 h, MDBK cells infected with BVDV, 50% reduction of cytopathic effect, four days, read-out: EC50): 4 µM
EC50 ([3]; Table 13, BVDV, read-out: Cell Protection (EC50)): 4 µM
Conc. for 6-log Reduction [4]: 20 μM
Yield Reduction 6 log10 reduction (μM) [4]: 20 μM
reduction in yield reduction assay [4]: 4 log
EC90 ([4]; Bovine viral diarrhea virus isolates and strains, Table 13, BVDV): 3 µM
Norm AUC ([5]; IV Monkey 1): 293.2 ng·h/mL/mg
Norm AUC ([5]; IV Monkey 2): 268.3 ng·h/mL/mg
Norm AUC ([5]; IV Monkey 3): 293.4 ng·h/mL/mg
Mean Norm AUC ([5]; IV): 284.9 ng·h/mL/mg
Norm AUC ([5]; PO Monkey 1): 26.1 ng·h/mL/mg
Norm AUC ([5]; PO Monkey 2): 29.0 ng·h/mL/mg
Norm AUC ([5]; PO Monkey 3): 61.3 ng·h/mL/mg
Mean Norm AUC ([5]; PO): 38.8 ng·h/mL/mg
F ([5]; Table 3, Cynomolgus monkeys, 10 mg/kg): 13.8%
bioavailability ([5]; cynomolgus monkey, blood, 10 mg/kg, Table 2, monkeys, PO vs IV, read-out: F (oral bioavailability)): 13.6%
AUC ([5]; cynomolgus monkey, blood, iv, 10 mg/kg, Cynomolgus monkeys, IV 10 mg/kg): 8760 ± 4210 ng·h/mL
AUC ([5]; cynomolgus monkey, blood, iv, 10 mg/kg, IV Monkey 1, dose 46.44 mg (10 mg/kg)): 13600 ng·h/mL
AUC ([5]; cynomolgus monkey, blood, iv, 10 mg/kg, IV Monkey 2, dose 24.53 mg (10 mg/kg)): 6580 ng·h/mL
AUC ([5]; cynomolgus monkey, blood, iv, 10 mg/kg, IV Monkey 3, dose 20.72 mg (10 mg/kg)): 6080 ng·h/mL
AUC ([5]; cynomolgus monkey, blood, po, 10 mg/kg, Cynomolgus monkeys, PO 10 mg/kg): 1170 ± 590 ng·h/mL
AUC ([5]; cynomolgus monkey, blood, po, 10 mg/kg, PO Monkey 1, dose 29.04 mg (10 mg/kg)): 758 ng·h/mL
AUC ([5]; cynomolgus monkey, blood, po, 10 mg/kg, PO Monkey 2, dose 30.93 mg (10 mg/kg)): 898 ng·h/mL
AUC ([5]; cynomolgus monkey, blood, po, 10 mg/kg, PO Monkey 3, dose 30.04 mg (10 mg/kg)): 1840 ng·h/mL
Cmax [5, 6]: 6950 ± 1890 ng/mL
Tmax [5, 6]: 0.25 h
clearance [5, 6]: 21.3 mL/min/kg
half-life [5, 6]: 7.9 ± 5.4 h
Vd ([5]; cynomolgus monkey, blood, Cynomolgus monkeys, IV 10 mg/kg, read-out: Vss): 2.09 ± 0.54 L/kg
Cmax [5, 7]: 218 ± 132 ng/mL
Tmax [5, 7]: 2 ± 1 h
half-life [5, 7]: 10.3 ± 4.1 h
